The values that follow come from patent US7820651B2, “Preparation of antimicrobial formulations using 7-oxa-2-thia-1,5-diazabicyclo[3.3.1]nonane-2,2-dione” (priority 2006, dated 2010).

Molecules are shown by their SMILES.

Data set [1] concerns A. niger (ATCC 16404). The data set is described as follows: Fungicidal activity according to DIN EN 1275 (membrane filtration), microbial count reduction. Conditions: 20°±1° C., pH 6.3. In kind it is cell-based. How it is done:
(§1) With regard to a possible use as lock solution, a solution was prepared, for testing for antimicrobial activity, by dissolving 0.85 g of cyclotaurolidine and 4.8 g of monosodium citrate in water (100 ml) with stirring, a clear colorless solution being obtained. After the pH of the solution had been adjusted to 6.3, the solution was filtered and filled into ampoules. The bactericidal and fungicidal activity of the solution was tested by a recognized test laboratory according to DIN EN 1040 and DIN EN 1275 (membrane filtration) against the test organisms S. aureus (ATCC 6538), P. aeruginosa (ATCC 15442), S. epidermis (ATCC 12288), C. albicans (ATCC 10231) and A. niger (ATCC 16404). The microbial count reductions observed for an action time of the test solution of 60 min and of 24 h at a test temperature of 20°±1° C. were determined. The results are given in log steps of the microbial count reduction, minimum reductions of ≧5.0 log steps being required with respect to the test microorganisms S. aureus, P. aeruginosa and S. epidermis and log steps of ≧4.0 for C. albicans and A. niger, based on DIN EN 1040 and DIN EN 1275.

The subject of data set [2] is C. albicans (ATCC 10231). The description is as above. Type of data set: cell-based. The note with it: 20°±1° C., pH 6.3. How it is done: as §1
The test system of data set [3] is S. aureus (ATCC 6538). The data set is described as follows: Bactericidal activity according to DIN EN 1040 (membrane filtration), microbial count reduction. Conditions: 20°±1° C., pH 6.3. In kind it is cell-based. How it is done: as §1
Data set [4] deals with S. epidermis (ATCC 12288). The data set is described as above. Type of data set: cell-based. The note with it: 20°±1° C., pH 6.3. The procedure: as §1
Data set [5] deals with P. aeruginosa (ATCC 15442). Described as above. In kind it is cell-based. Conditions: 20°±1° C., pH 6.3. The procedure: as §1
Data set [6] is classed as physicochemical. The text has this: In contrast to taurolidin, cyclotaurolidine can therefore also be processed to give formulations in organic vehicles, for example in many customary organic vehicle materials for pharmaceutical and cosmetic purposes. This permits, for example, advantageous use in ointments and gels and on plastic surfaces (in the surface layers of stents), for example in agents for disinfecting the skin surface or as a fungicide, for example for the feet.

The nature of data set [7]: Exploratory experiments for dissolving in water (solubility). In kind it is physicochemical. The note with it: in 100 ml of water at room temperature.
Setting [8] is: action time 60 min, 0.85 g cyclotaurolidine and 4.8 g monosodium citrate in 100 ml water.
Where [9] appears, read: action time 24 h, 0.85 g cyclotaurolidine and 4.8 g monosodium citrate in 100 ml water.
Where [10] appears, read: action time 60 min, comparative aqueous solution, 2% by weight of taurolidin with citrate.
[11] abbreviates: action time 24 h, comparative aqueous solution, 2% by weight of taurolidin with citrate.

In the case of `O=S1(=O)CCN2COCN1C2` [cyclotaurolidine, 7-oxa-2-thia-1,5-diazabicyclo[3.3.1]nonane-2,2-dione], the microbial count reduction in data set [1] (setting [8]) is > 4.08 log steps; in data set [1] (setting [9]), > 4.08 log steps; in data set [2] (setting [8]), > 4.26 log steps; in data set [2] (setting [9]), > 4.26 log steps; in data set [3] (setting [8]) it was 2.04 log steps; in data set [3] (setting [9]) it was > 5.25 log steps. Also, the microbial count reduction in data set [4] (setting [8]) is listed as 1.22 log steps; in data set [4] (setting [9]), > 5.29 log steps; in data set [5] (setting [8]), > 5.27 log steps; in data set [5] (setting [9]) it was > 5.27 log steps. Moreover, the “solubility in organic solvents” value in data set [6] is given as “soluble in various organic solvents”. Further, the “stability in the air” value in data set [6] is given as “stable in the air at customary temperatures”. Moreover, in data set [7], the solubility was ≤ 13 mg/mL.

Consider `O=S1(=O)CCN(CN2CCS(=O)(=O)NC2)CN1` [taurolidin, reference compound], for which the microbial count reduction in data set [1] (setting [10]) is 1.18 log steps; in data set [1] (setting [11]), ≥ 4.08 log steps; in data set [2] (setting [10]), 0 log steps; in data set [2] (setting [11]) it was 3.70 log steps; in data set [3] (setting [10]) it was 1.33 log steps; in data set [3] (setting [11]) it was ≥ 5.25 log steps. Moreover, the microbial count reduction was > 0.99 log steps in data set [4] (setting [10]), ≥ 5.29 log steps in data set [4] (setting [11]), > 5.27 log steps in data set [5] (setting [10]) and ≥ 5.27 log steps in data set [5] (setting [11]).
